Tests used:
Assay in all cases: cells
CP66-MEL = format: functional, cell-based, Homo sapiens; settings: Homo sapiens, CP66-MEL
Description: SANGER: Inhibition of human CP66-MEL cell growth in a cell viability assay.

D-336MG = format: functional, cell-based, Homo sapiens; settings: Homo sapiens, D-336MG
Description: SANGER: Inhibition of human D-336MG cell growth in a cell viability assay.

DU-145 = format: functional, cell-based, Homo sapiens; settings: Homo sapiens, DU-145
Description: SANGER: Inhibition of human DU-145 cell growth in a cell viability assay.

Detroit 562 = format: functional, cell-based, Homo sapiens; settings: Homo sapiens, Detroit 562
Description: SANGER: Inhibition of human Detroit562 cell growth in a cell viability assay.

EFO-27 = format: functional, cell-based, Homo sapiens; settings: Homo sapiens, EFO-27
Description: SANGER: Inhibition of human EFO-27 cell growth in a cell viability assay.

ETK-1 = format: functional, cell-based, Homo sapiens; settings: Homo sapiens, ETK-1
Description: SANGER: Inhibition of human ETK-1 cell growth in a cell viability assay.

GCIY = format: functional, cell-based, Homo sapiens; settings: Homo sapiens, GCIY
Description: SANGER: Inhibition of human GCIY cell growth in a cell viability assay.

HCC1395 = format: functional, cell-based, Homo sapiens; settings: Homo sapiens, HCC1395
Description: SANGER: Inhibition of human HCC1395 cell growth in a cell viability assay.

HCC2157 = format: functional, cell-based; settings: Homo sapiens
Description: SANGER: Inhibition of human HCC2157 cell growth in a cell viability assay.

HSC-3 = format: functional, cell-based, Homo sapiens; settings: Homo sapiens, HSC-3
Description: SANGER: Inhibition of human HSC-3 cell growth in a cell viability assay.

HT-1376 = format: functional, cell-based, Homo sapiens; settings: Homo sapiens, HT-1376
Description: SANGER: Inhibition of human HT-1376 cell growth in a cell viability assay.

HT-3 = format: functional, cell-based, Homo sapiens; settings: Homo sapiens, HT-3
Description: SANGER: Inhibition of human HT-3 cell growth in a cell viability assay.

HTC-C3 = format: functional, cell-based, Homo sapiens; settings: Homo sapiens, HTC-C3
Description: SANGER: Inhibition of human HTC-C3 cell growth in a cell viability assay.

Hs-578T = format: functional, cell-based, Homo sapiens; settings: Homo sapiens, Hs-578T
Description: SANGER: Inhibition of human Hs-578-T cell growth in a cell viability assay.

K562 = format: functional, cell-based; settings: Homo sapiens
Description: SANGER: Inhibition of human K-562 cell growth in a cell viability assay.

LB831-BLC = format: functional, cell-based, Homo sapiens; settings: Homo sapiens, LB831-BLC
Description: SANGER: Inhibition of human LB831-BLC cell growth in a cell viability assay.

MDA-MB-157 = format: functional, cell-based, Homo sapiens; settings: Homo sapiens, MDA-MB-157
Description: SANGER: Inhibition of human MDA-MB-157 cell growth in a cell viability assay.

MDA-MB-231 = format: functional, cell-based, Homo sapiens; settings: Homo sapiens, MDA-MB-231
Description: SANGER: Inhibition of human MDA-MB-231 cell growth in a cell viability assay.

MDA-MB-453 = format: functional, cell-based, Homo sapiens; settings: Homo sapiens, MDA-MB-453
Description: SANGER: Inhibition of human MDA-MB-453 cell growth in a cell viability assay.

MKN-1 = format: functional, cell-based, Homo sapiens; settings: Homo sapiens, MKN-1
Description: SANGER: Inhibition of human MKN1 cell growth in a cell viability assay.

MV4-11 = format: functional, cell-based, MV-4-11; settings: Homo sapiens
Description: SANGER: Inhibition of human MV-4-11 cell growth in a cell viability assay.

NB69 = format: functional, cell-based, Homo sapiens; settings: Homo sapiens, NB69
Description: SANGER: Inhibition of human NB69 cell growth in a cell viability assay.

NCI-H1581 = format: functional, cell-based, Homo sapiens; settings: Homo sapiens, NCI-H1581
Description: SANGER: Inhibition of human NCI-H1581 cell growth in a cell viability assay.

NCI-H1838 = format: functional, cell-based, Homo sapiens; settings: Homo sapiens, NCI-H1838
Description: SANGER: Inhibition of human NCI-H1838 cell growth in a cell viability assay.

NCI-H441 = format: functional, cell-based; settings: Homo sapiens
Description: SANGER: Inhibition of human NCI-H441 cell growth in a cell viability assay.

NCI-H596 = format: functional, cell-based, Homo sapiens; settings: Homo sapiens, NCI-H596
Description: SANGER: Inhibition of human NCI-H596 cell growth in a cell viability assay.

NEC8 = format: functional, cell-based, Homo sapiens; settings: Homo sapiens, NEC8
Description: SANGER: Inhibition of human NEC8 cell growth in a cell viability assay.

NTERA-2-cl-D1 = format: functional, cell-based, Homo sapiens; settings: Homo sapiens, NTERA-2-cl-D1
Description: SANGER: Inhibition of human NTERA-S-cl-D1 cell growth in a cell viability assay.

OE19 = format: functional, cell-based, Homo sapiens; settings: Homo sapiens, OE19
Description: SANGER: Inhibition of human OE19 cell growth in a cell viability assay.

PC-3 = format: functional, cell-based, Homo sapiens; settings: Homo sapiens, PC-3
Description: SANGER: Inhibition of human PC-3 cell growth in a cell viability assay.

PSN1 = format: functional, cell-based, Homo sapiens; settings: Homo sapiens, PSN1
Description: SANGER: Inhibition of human PSN1 cell growth in a cell viability assay.

SCC-15 = format: functional, cell-based, Homo sapiens; settings: Homo sapiens, SCC-15
Description: SANGER: Inhibition of human SCC-15 cell growth in a cell viability assay.

SCC-9 = format: functional, cell-based, Homo sapiens; settings: Homo sapiens, SCC-9
Description: SANGER: Inhibition of human SCC-9 cell growth in a cell viability assay.

SK-OV-3 = format: functional, cell-based, Homo sapiens; settings: Homo sapiens, SK-OV-3
Description: SANGER: Inhibition of human SK-OV-3 cell growth in a cell viability assay.

SW1463 = format: functional, cell-based, Homo sapiens; settings: Homo sapiens, SW1463
Description: SANGER: Inhibition of human SW1463 cell growth in a cell viability assay.

SW626 = format: functional, cell-based, Homo sapiens; settings: Homo sapiens, SW626
Description: SANGER: Inhibition of human SW626 cell growth in a cell viability assay.

T98G = format: functional, cell-based, Homo sapiens; settings: Homo sapiens, T98G
Description: SANGER: Inhibition of human T98G cell growth in a cell viability assay.

A253 cell line = format: functional, cell-based, Homo sapiens; settings: Homo sapiens, A253
Description: SANGER: Inhibition of human A253 cell growth in a cell viability assay.

A3-KAW = format: functional, cell-based; settings: Homo sapiens
Description: SANGER: Inhibition of human A3-KAW cell growth in a cell viability assay.

ALL-PO = format: functional, cell-based; settings: Homo sapiens
Description: SANGER: Inhibition of human ALL-PO cell growth in a cell viability assay.

BE-13 = format: functional, cell-based; settings: Homo sapiens
Description: SANGER: Inhibition of human BE-13 cell growth in a cell viability assay.

BFTC-905 = format: functional, cell-based, Homo sapiens; settings: Homo sapiens, BFTC-905
Description: SANGER: Inhibition of human BFTC-905 cell growth in a cell viability assay.

BT-20 = format: functional, cell-based, Homo sapiens; settings: Homo sapiens, BT-20
Description: SANGER: Inhibition of human BT-20 cell growth in a cell viability assay.

C-33-A = format: functional, cell-based, Homo sapiens; settings: Homo sapiens, C-33-A
Description: SANGER: Inhibition of human C-33-A cell growth in a cell viability assay.

CAL-72 = format: functional, cell-based, Homo sapiens; settings: Homo sapiens, CAL-72
Description: SANGER: Inhibition of human CAL-72 cell growth in a cell viability assay.

CAL-85-1 = format: functional, cell-based; settings: Homo sapiens
Description: SANGER: Inhibition of human CAL-85-1 cell growth in a cell viability assay.

U-251 = format: functional, cell-based, Homo sapiens; settings: Homo sapiens, U-251
Description: SANGER: Inhibition of human U251 cell growth in a cell viability assay.

UACC-62 = format: functional, cell-based, Homo sapiens; settings: Homo sapiens, UACC-62
Description: SANGER: Inhibition of human UACC-62 cell growth in a cell viability assay.

## O=c1cc(-c2cccc3c2Sc2ccccc2S3)oc(N2CCOCC2)c1 [KU-55933]
CP66-MEL
  IC50: > 10 µM
D-336MG
  IC50: > 10 µM
DU-145
  IC50: 3.27 µM
Detroit 562
  IC50: > 10 µM
EFO-27
  IC50: > 10 µM
ETK-1
  IC50: > 10 µM
GCIY
  IC50: > 10 µM
HCC1395
  IC50: > 10 µM
HCC2157
  IC50: > 10 µM
HSC-3
  IC50: > 10 µM
HT-1376
  IC50: > 10 µM
HT-3
  IC50: > 10 µM
HTC-C3
  IC50: > 10 µM
Hs-578T
  IC50: > 10 µM
K562
  IC50: > 10 µM
LB831-BLC
  IC50: > 10 µM
MDA-MB-157
  IC50: > 10 µM
MDA-MB-231
  IC50: > 10 µM
MDA-MB-453
  IC50: > 10 µM
MKN-1
  IC50: > 10 µM
MV4-11
  IC50: > 10 µM
NB69
  IC50: > 10 µM
NCI-H1581
  IC50: > 10 µM
NCI-H1838
  IC50: > 10 µM
NCI-H441
  IC50: > 10 µM
NCI-H596
  IC50: > 10 µM
NEC8
  IC50: > 10 µM
NTERA-2-cl-D1
  IC50: > 10 µM
OE19
  IC50: > 10 µM
PC-3
  IC50: > 10 µM
PSN1
  IC50: > 10 µM
SCC-15
  IC50: > 10 µM
SCC-9
  IC50: > 10 µM
SK-OV-3
  IC50: > 10 µM
SW1463
  IC50: > 10 µM
SW626
  IC50: > 10 µM
T98G
  IC50: > 10 µM
A253 cell line
  IC50: > 10 µM
A3-KAW
  IC50: > 10 µM
ALL-PO
  IC50: > 10 µM
BE-13
  IC50: > 10 µM
BFTC-905
  IC50: > 10 µM
BT-20
  IC50: > 10 µM
C-33-A
  IC50: > 10 µM
CAL-72
  IC50: 5.48 µM
CAL-85-1
  IC50: > 10 µM
U-251
  IC50: > 10 µM
UACC-62
  IC50: > 10 µM
